In test [1] the target is Platelet-derived growth factor receptor beta (Homo sapiens, UniProt P09619). Briefly: Inhibition of human PDGFRbeta using biotin labeled substrate after 1 hr by HTFR assay. As to conditions: for pIC50: read-out: IC50; call rule not given here.
For test [2], the target named is Vascular endothelial growth factor receptor 2 (Homo sapiens, UniProt P35968).
Description: Inhibition of human KDR using biotin labeled substrate after 1 hr by HTFR assay
Test [3] addresses T1, Receptor-type tyrosine-protein kinase FLT3 (Homo sapiens, UniProt P36888).
T1 sequence (P36888 whole entry): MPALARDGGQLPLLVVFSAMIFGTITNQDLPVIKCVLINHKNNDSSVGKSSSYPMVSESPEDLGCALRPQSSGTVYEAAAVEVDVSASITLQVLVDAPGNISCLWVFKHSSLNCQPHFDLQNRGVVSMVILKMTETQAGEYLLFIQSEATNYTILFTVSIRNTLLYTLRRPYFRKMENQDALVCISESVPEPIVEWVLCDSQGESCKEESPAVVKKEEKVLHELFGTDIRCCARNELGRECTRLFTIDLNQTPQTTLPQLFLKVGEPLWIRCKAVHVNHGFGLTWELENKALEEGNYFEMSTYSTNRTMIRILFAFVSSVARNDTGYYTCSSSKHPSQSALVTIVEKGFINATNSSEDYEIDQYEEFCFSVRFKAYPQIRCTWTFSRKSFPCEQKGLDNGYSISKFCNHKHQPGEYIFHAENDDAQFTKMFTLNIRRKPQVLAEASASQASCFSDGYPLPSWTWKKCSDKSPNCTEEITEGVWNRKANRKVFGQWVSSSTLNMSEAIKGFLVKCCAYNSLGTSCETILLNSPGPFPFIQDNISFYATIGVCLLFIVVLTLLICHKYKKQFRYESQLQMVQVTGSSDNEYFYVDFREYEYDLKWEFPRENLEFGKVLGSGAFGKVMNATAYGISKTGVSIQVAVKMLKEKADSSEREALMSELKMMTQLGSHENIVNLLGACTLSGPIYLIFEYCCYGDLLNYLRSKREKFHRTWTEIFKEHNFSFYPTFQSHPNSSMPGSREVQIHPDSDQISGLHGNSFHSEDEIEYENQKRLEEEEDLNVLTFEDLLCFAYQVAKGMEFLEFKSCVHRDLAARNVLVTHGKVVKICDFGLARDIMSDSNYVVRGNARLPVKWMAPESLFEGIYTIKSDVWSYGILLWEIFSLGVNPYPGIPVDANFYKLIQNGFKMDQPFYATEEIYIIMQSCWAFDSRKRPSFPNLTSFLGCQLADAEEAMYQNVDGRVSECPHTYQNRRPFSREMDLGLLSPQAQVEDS
Description: Inhibition of human FLT3 using biotin labeled substrate after 1 hr by HTFR assay

The subject of the next test is HUVEC. Briefly: Antiproliferative activity against HUVEC after 72 hrs by cell titer glo-based fluorescence assay. The conditions noted are these: Homo sapiens. In general terms: In ATP-based viability assays light output follows the ATP content of the culture.
Another test has as its system MCF7. Briefly: Antiproliferative activity against human MCF7 cells after 72 hrs by cell titer glo-based fluorescence assay. The conditions noted are these: MCF7, 72 h.
The next test relates to MV4-11. As to the kind of experiment: Antiproliferative activity against human MV4-11 cells after 72 hrs by cell titer glo-based fluorescence assay. The conditions noted are these: MV4-11, 72 h.

pIC50: −log10 of the molar value.

Chain of Platelet-derived growth factor receptor beta (P09619 whole entry): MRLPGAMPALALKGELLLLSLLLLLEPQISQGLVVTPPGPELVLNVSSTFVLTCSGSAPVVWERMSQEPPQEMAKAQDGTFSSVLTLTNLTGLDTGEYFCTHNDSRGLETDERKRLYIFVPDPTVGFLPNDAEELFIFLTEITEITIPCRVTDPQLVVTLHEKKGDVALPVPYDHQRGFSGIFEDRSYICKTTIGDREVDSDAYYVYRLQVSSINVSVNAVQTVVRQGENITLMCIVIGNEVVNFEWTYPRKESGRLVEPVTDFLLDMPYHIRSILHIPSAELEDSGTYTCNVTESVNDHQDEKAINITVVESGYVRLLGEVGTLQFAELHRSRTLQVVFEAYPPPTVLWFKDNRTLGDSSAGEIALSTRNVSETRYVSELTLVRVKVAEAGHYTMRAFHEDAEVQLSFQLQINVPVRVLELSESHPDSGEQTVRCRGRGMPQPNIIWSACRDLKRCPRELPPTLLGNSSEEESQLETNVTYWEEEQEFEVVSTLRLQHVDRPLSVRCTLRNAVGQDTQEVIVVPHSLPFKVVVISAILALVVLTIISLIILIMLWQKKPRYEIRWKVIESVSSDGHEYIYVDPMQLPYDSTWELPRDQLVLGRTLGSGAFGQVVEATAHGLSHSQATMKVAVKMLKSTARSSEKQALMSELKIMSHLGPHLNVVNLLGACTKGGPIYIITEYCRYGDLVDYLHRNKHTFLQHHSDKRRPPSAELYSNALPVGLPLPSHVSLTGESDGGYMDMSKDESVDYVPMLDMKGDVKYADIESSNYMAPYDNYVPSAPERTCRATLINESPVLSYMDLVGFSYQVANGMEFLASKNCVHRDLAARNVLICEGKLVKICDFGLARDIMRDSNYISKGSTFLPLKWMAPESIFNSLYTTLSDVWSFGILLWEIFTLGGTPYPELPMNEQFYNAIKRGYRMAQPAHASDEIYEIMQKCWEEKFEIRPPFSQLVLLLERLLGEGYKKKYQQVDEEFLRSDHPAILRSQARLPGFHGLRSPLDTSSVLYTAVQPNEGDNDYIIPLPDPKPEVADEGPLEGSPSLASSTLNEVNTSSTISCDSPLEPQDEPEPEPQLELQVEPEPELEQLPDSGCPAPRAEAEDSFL
Chain of Vascular endothelial growth factor receptor 2 (P35968 whole entry): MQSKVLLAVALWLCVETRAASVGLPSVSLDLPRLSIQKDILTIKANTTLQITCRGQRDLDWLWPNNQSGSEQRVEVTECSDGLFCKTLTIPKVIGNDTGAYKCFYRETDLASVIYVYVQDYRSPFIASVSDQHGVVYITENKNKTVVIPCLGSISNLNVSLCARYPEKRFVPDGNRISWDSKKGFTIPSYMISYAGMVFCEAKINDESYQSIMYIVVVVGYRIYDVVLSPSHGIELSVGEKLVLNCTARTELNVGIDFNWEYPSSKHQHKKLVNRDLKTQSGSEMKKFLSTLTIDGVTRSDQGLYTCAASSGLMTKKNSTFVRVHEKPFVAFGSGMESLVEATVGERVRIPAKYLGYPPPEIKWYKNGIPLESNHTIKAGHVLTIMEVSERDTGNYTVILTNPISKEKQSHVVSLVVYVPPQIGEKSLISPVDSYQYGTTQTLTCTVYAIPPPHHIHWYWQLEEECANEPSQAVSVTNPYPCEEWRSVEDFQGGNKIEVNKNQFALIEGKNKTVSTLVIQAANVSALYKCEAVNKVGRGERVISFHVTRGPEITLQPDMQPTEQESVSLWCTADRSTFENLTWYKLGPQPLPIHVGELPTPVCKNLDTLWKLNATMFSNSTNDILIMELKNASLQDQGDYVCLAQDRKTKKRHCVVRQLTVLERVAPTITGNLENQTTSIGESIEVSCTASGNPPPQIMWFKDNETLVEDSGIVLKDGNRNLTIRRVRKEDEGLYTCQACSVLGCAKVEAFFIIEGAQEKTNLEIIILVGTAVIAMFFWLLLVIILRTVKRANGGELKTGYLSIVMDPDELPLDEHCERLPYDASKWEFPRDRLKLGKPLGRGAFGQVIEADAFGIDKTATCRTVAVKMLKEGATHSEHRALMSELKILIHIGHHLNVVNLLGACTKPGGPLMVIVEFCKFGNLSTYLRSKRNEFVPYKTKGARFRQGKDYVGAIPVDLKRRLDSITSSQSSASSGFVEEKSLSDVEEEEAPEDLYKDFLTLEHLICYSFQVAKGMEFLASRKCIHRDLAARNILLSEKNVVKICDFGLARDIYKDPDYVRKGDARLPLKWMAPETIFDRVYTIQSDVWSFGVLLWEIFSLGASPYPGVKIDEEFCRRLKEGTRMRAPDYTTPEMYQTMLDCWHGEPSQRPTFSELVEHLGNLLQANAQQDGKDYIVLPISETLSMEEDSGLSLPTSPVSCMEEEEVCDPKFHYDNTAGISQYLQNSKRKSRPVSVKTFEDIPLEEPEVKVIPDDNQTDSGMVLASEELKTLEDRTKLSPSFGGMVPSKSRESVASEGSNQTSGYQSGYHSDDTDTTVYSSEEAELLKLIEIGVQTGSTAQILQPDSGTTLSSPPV

As a reminder, the pIC50 is the negative decadic logarithm of the IC50, by convention in mol/L. As for `Cc1ccc(NC(=O)Nc2ccc(-c3cc(-c4ccccc4)nc4noc(N)c34)cc2)cc1`, in test [1], the negative-log IC50 (pIC50) was 5.90. Further, the IC50 entry in test [2] is recorded as “Not Active”.
Take `C=CC(=O)Nc1ccc(NC(=O)Nc2ccc(-c3cc(-c4ccccc4)nc4noc(N)c34)cc2)cc1`: the IC50 result in test [1], in test [3] and in test [2] was “Not Active” each time.
Take `Cc1ccc(F)c(NC(=O)Nc2ccc(-c3cccc4[nH]nc(N)c34)cc2)c1` [LINIFANIB]: the pIC50 with HUVEC is 4.40; with MCF7, 4.77; in the test with MV4-11, 6.16.
As to `C/C=C\C(=O)Nc1ccc(NC(=O)Nc2ccc(-c3cc(C)nc4noc(N)c34)cc2)cc1C`, the IC50 result in test [1] and in test [2] was “Not Active” throughout.
As to `Nc1onc2nc(-c3ccccc3)cc(-c3ccc(NC(=O)Nc4cccc(F)c4)cc3)c12`, in test [1], the pIC50 is 5.49.
As to `Cc1cc(-c2ccc(NC(=O)Nc3ccc(Cl)c(C(F)(F)F)c3)cc2)c2c(N)onc2n1`, the pIC50 in test [1] is 7.70; with HUVEC it was 4.90; in the test on MCF7, 4.54; in the test with MV4-11, 6.47.
On to `C/C=C\C(=O)Nc1ccc(NC(=O)Nc2ccc(-c3cc(C)nc4noc(N)c34)cc2)cc1`, for which the IC50 entry in test [1] and in test [2] was “Not Active” each time.
Regarding `Cc1cc(-c2ccc(NC(=O)Nc3cccc(Cl)c3)cc2)c2c(N)onc2n1`, the pIC50 in test [1] is 7.40; in the test on HUVEC, 4.82; with MCF7 it was 4.40; in the test with MV4-11 it was 6.27.
In the case of `Cc1cccc(NC(=O)Nc2ccc(-c3cc(-c4ccccc4)nc4noc(N)c34)cc2)c1`, in test [1], the pIC50 was 5.91.
Consider `Cc1cc(-c2ccc(NC(=O)Nc3ccccc3Cl)cc2)c2c(N)onc2n1`, for which the pIC50 in test [1] is 6.09.
The same measure, in the same setting: under `C=C(CN1CCOCC1)C(=O)Nc1ccc(NC(=O)Nc2ccc(-c3cc(C)nc4noc(N)c34)cc2)cc1C` stands 6.29.
On to `Nc1onc2nc(-c3ccccc3)cc(-c3ccc(NC(=O)Nc4ccccc4)cc3)c12`, for which the negative-log IC50 (pIC50) in test [1] is 5.45. Moreover, the IC50 entry in test [2] is “Not Active”.
For the molecule `Nc1onc2nc(-c3ccccc3)cc(-c3ccc(NC(=O)Nc4ccc(Cl)c(C(F)(F)F)c4)cc3)c12`, the pIC50 in test [1] is 6.54.
In the case of `Nc1onc2nc(-c3ccccc3)cc(-c3ccc(NC(=O)Nc4ccccc4F)cc3)c12`, the IC50 result in test [1], in test [3] and in test [2] was “Not Active” throughout.
In the case of `Cc1cc(-c2ccc(NC(=O)Nc3cccc(C(F)(F)F)c3)cc2)c2c(N)onc2n1`, the pIC50 in test [1] was 7.70; in the test on HUVEC it was 5.10; with MCF7, 4.43; with MV4-11 it was 6.21.
Consider `Cc1cccc(NC(=O)Nc2ccc(-c3cc(C)nc4noc(N)c34)cc2)c1`, for which the pIC50 was 8.10 in test [1], 4.93 with HUVEC, 4.98 with MCF7 and 6.92 in the test on MV4-11.
Consider `Nc1onc2nc(-c3ccccc3)cc(-c3ccc(NC(=O)Nc4cccc(Cl)c4)cc3)c12`, for which the pIC50 in test [1] is 5.65.
Turning to `COc1ccc(NC(=O)Nc2ccc(-c3cc(-c4ccccc4)nc4noc(N)c34)cc2)cc1`, the IC50 result in test [1] and in test [2] was “Not Active” throughout.
Take `Nc1onc2nc(-c3ccccc3)cc(-c3ccc(NC(=O)Nc4ccc(F)cc4)cc3)c12`: the negative logarithm of the IC50 (pIC50) in test [1] was 5.42.

Source of the values: ChEMBL document CHEMBL4229538, “Design, synthesis and structure-activity relationship of diaryl-ureas with novel isoxazol[3,4-b]pyridine-3-amino-structure as multi-target inhibitors against receptor tyrosine kinase” (Bioorg Med Chem, 2018).
